Laboratory results from patent US20260373283A1, “LIPID NANOPARTICLES AND METHODS OF USING THE SAME FOR TREATING CELL PROLIFERATIVE DISEASES AND DISORDERS” (Northwestern University, priority 2022, published 2026).

How the values were obtained:
[1] = system: CD8+ T cells in CT-2A tumors; test: T cell infiltration to brain tumors after systemic delivery; format: in vivo, mouse; details: i.v. 2.5 mg/kg diABZI with fractionated RT
Description: FIG. 16. Systemic nanoparticle delivery of diABZI enhances T cell infiltration to brain tumors. C57 mice received intracranial implantation of 7.5×10^4 CT-2A cells, RT (3 Gy×3), and two administrations of saline, free diABZI, or P-LNP/diABZI (2.5 mg/kg diABZI) through intravenous injections. Freshly dissected brains were analyzed by flow cytometry for T cell infiltration. Data are represented as mean±SEM; n=5. *, p<0.05; **, p<0.01; determined by determined by one-way ANOVA with Tukey's multiple comparisons test.
In vivo nanoparticle treatment through systemic delivery. C57BL/6 mice with intracranially implanted CT-2A (7.5×10^4 cells per mouse) were randomly grouped and treated with saline or P-LNP/diABZI (2.5 mg diABZI per kg) through intravenous administration on the ninth, fourteenth, and nineteenth day after tumor implantation. Selected groups of mice also received brain-focused radiotherapy for three consecutive days starting on the sixth day post-tumor implantation. […] Tumor burden was analyzed by hematoxylin and eosin (H&E) staining. Therapeutic effects of P-LNP/diABZI was similarly evaluated in mice implanted with PF8 cells (7.5×10^4 cells per mouse) and received RT and intravenous administrations of saline or P-LNP/diABZI (2.5 mg diABZI per kg) on the eighth and thirteenth day after tumor implantation.

TAMCs [2] = test: pro-inflammatory gene expression in TAMCs by qPCR; format: cell-based, mouse; details: diABZI 200 nM, 6 h
Description: (§1) In vitro analysis of diABZI effects on TAMC and T cell. In vitro generated TAMCs (1×10^6 cells/well) in 6-well plate were treated with diABZI at 200 nM. After 6 h of treatment, cells were washed and collected for RNA isolation using the RNEasy Plus Mini Kit (Qiagen). Total RNA was quantified by Nanodrop (Thermo Scientific), and cDNA was synthesized using the iScript cDNA synthesis kit (Bio-Rad). Gene expression was analyzed by quantitative PCR analysis (Bio-Rad). Alternatively, flow cytometric analysis was performed 24 h after treatment. To determine the cytotoxicity of diABZI to T cells, T cells were isolated using mouse T cell isolation kit (STEMCELL Technologies) and seeded at 2×10^5 cells/well in 96-well U bottom plates with the addition of Dynabeads mouse T cell activator CD3/CD28 (Fisher) and IL-2 (PeproTech) at 50 U/ml. Cells were treated with diABZI at 200 nM for 48 h and collected for annexin V assay (BioLegend) using flow cytometry.

T cells = test: cytotoxicity to T cells by Annexin V staining; format: cell-based, mouse; details: 200 nM, 48 h
Description: (§2) BMDM, bone marrow-derived macrophage. […] FIG. 10E, Cytotoxicity of diABZI to T cells was tested by Annexin V staining using flow cytometry 48 h after treatment with diABZI at 200 nM.
as §1

CT-2A glioma [3] = test: survival, CT-2A-bearing mice, systemic delivery with RT; format: in vivo, mouse; details: i.v. 2.5 mg/kg diABZI with fractionated RT
Description: FIGS. 6A-6F. Systemic nanoparticle delivery of diABZI potentiates anti-glioma effects of RT. FIGS. 6A-6E, C57 mice received intracranial implantation of 7.5×10^4 CT-2A cells and three administrations of saline, free diABZI, or P-LNP/diABZI (2.5 mg/kg diABZI) through intravenous injections. Selected groups of mice received RT (3 Gy×3) as monotherapy or combination therapy. FIG. 6A, Survival curves of CT-2A-bearing C57 mice received different treatments. n=6-7 mice per group. Survival curves were compared using Log-rank test for those with proportional hazards and Renyi statistics for those with crossing hazards with p values adjusted by Bonferroni correction. […] Tumor burden in control and LTS mice were evaluated through H&E staining. FIG. 6C, 100 d post-rechallenge, freshly dissected brains from LTS, age-matched tumor-bearing mice, and age-matched non-tumor control mice were analyzed by flow cytometry for immune composition and CD8^+ T cell phenotypes. Data are represented as mean±SEM; n=5. *, p<0.05; **, p<0.01; determined by Student's t-test. […] FIG. 6D, Histology of the brains was evaluated by H. E. staining. […] FIG. 6E, Freshly dissected brains were analyzed by flow cytometry for immune composition, TAMC, and CD8^+ T cell phenotypes. Data are represented as mean±SEM; n=5. **, p<0.01; ***, p<0.001; ****, p<0.0001; determined by Student's t-test. […]

TAMCs [4] = test: ARG1, CD206, CD86 expression in TAMCs by flow cytometry; format: cell-based, mouse; details: 24 h post-treatment
Description: as §2, §1

CT-2A glioma [5] = test: survival with Stupp treatment (RT plus TMZ); format: in vivo, mouse; details: RT+TMZ (3 Gy×3; TMZ 50 mg/kg×3 i.p.); control 27.5 days
Description: FIG. 15. B-LNP treatment improves antitumor effects of RT plus concomitant adjuvant TMZ in GBM-bearing mice. Survival curves of C57 mice received intracranial implantation of 5×10^4 CT-2A cells and two administrations of saline, B-LNP/diABZI (0.25 mg/kg diABZI), or a combination of free diABZI and therapeutic antibodies (αPD-L1+αCD47) (referred to as cocktails) through implanted cannula. Selected groups of mice also received RT (3 Gy×3) plus TMZ through intraperitoneal injection (50 mg/kg×3). n=7-10 mice per group. **, p<0.01; determined by Log-rank test for groups with proportional hazards and Renyi statistics for groups with crossing hazards. p values were adjusted by Bonferroni correction.
In vivo B-LNP/diABZI combined with Stupp treatment. C57BL/6 mice with intracranially implanted CT-2A (5×10^4 cells per mouse) were randomly grouped and received a daily dose of brain-focused irradiation at 3 Gy and TMZ at 50 mg per kg intraperitoneally for three consecutive days starting on the seventh day after tumor cell implantation. Certain groups of mice also received B-LNP/diABZI (0.25 mg diABZI per kg) or a combination of free diABZI and therapeutic antibodies (αPD-L1+αCD47) on the ninth and thirteenth day after tumor implantation through intracranially implanted cannula. All mice were followed for their survival following outlined endpoint protocols.

Row | Structure (SMILES) | CD8+ T cell tumor infiltration [1] | expression of pro-inflammatory genes in TAMCs (type I IFNs, CCL5, CXCL10) (TAMCs [2]) | cytotoxicity to T cells (T cells) | animal survival in CT-2A glioma model (CT-2A glioma [3]) | ARG1 and CD206 in TAMCs (TAMCs [4]) | CD86 in TAMCs (TAMCs [4]) | median survival (CT-2A glioma [5]) [days]
1 | CCn1nc(C)cc1C(=O)Nc1nc2cc(C(N)=O)cc(OC)c2n1C/C=C/Cn1c(NC(=O)c2cc(C)nn2CC)nc2cc(C(N)=O)cc(OCCCN3CCOCC3)c21 [diABZI] | not free drugs, led to a dramatically enhanced CD8^+ T cell tumor infiltration | dramatically increased expression of pro-inflammatory genes in TAMCs | causes cytotoxicity to T cells | not free drugs, led to a dramatically enhanced CD8^+ T cell tumor infiltration (FIG. 16) and animal survival | reduced levels of immunosuppressive factors ARG1 and CD206 | higher levels of activation factor CD86 | 
2 | Cn1nnc2c(C(N)=O)ncn2c1=O [TMZ, temozolomide] |  |  |  |  |  |  | 36
